Measured values published in patent US6737383B1, “Herbicidal oxadiazolidines” (priority 1999, dated 2004).

Columns and labels:
wild oat = test: Test B pre/postemergence wild oat; format: in vivo, Avena fatua
Procedure, shortened: (§1)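 Test chemicals in a non-phytotoxic solvent mixture with surfactant were sprayed preemergence onto planted seeds and postemergence onto plants 2 to 18 cm tall (1- to 4-leaf stage). After twelve to sixteen days in a greenhouse, injury was visually rated against untreated controls from 0 (no effect) to 10 (complete control).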

giant foxtail = test: Test B pre/postemergence giant foxtail; format: in vivo, Setaria faberii
Procedure, shortened: as §1

bedstraw = test: Test B pre/postemergence bedstraw; format: in vivo, Galium aparine; conditions: for Bedstraw plant response rating: Postemergence
Procedure, shortened: as §1

bamyardgrass = test: Test B flood test barnyardgrass; format: in vivo, Echinochloa crus-galli
Procedure, shortened: (§2)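 Flood test on plants grown to the 2-leaf stage; treated plants kept in greenhouse twelve to sixteen days, then visually rated against controls on a 0 (no effect) to 10 (complete control) scale.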

crabgrass = test: Test B pre/postemergence crabgrass; format: in vivo, Digitaria sanguinalis
Procedure, shortened: as §1

cocklebur = test: Test B pre/postemergence cocklebur; format: in vivo, Xanthium strumarium
Procedure, shortened: as §1

corn = test: Test B pre/postemergence corn; format: in vivo, Zea mays
Procedure, shortened: as §1

morningglory = test: Test B pre/postemergence morningglory; format: in vivo, Ipomoea hederacea
Procedure, shortened: as §1

rice = test: Test B flood test rice; format: in vivo, Oryza sativa
Procedure, shortened: as §2

blackgrass = test: Test B pre/postemergence blackgrass; format: in vivo, Alopecurus myosuroides
Procedure, shortened: as §1

purple nutsedge = test: Test B pre/postemergence purple nutsedge; format: in vivo, Cyperus rotundus
Procedure, shortened: as §1

duck salad = test: Test B flood test duck salad; format: in vivo, Heteranthera limosa
Procedure, shortened: as §2

wheat = test: Test B pre/postemergence wheat; format: in vivo, Triticum aestivum
Procedure, shortened: as §1

velvetleaf = test: Test B pre/postemergence velvetleaf; format: in vivo, Abutilon theophrasti
Procedure, shortened: as §1

smallflower flatsedge = test: Test B flood test smallflower flatsedge; format: in vivo, Cyperus difformis
Procedure, shortened: as §2

surinam grass = test: Test B pre/postemergence surinam grass; format: in vivo, Brachiaria decumbens
Procedure, shortened: as §1

[1] = Postemergence, Rate 125 g/ha, scale 0 to 10, 0 is no effect, 10 is complete control
[2] = Postemergence, Rate 250 g/ha, scale 0 to 10
[3] = Preemergence, Rate 62 g/ha, scale of 0 to 10 where 0 is no effect and 10 is complete control
[4] = Preemergence, Rate 125 g/ha, scale 0 to 10, 0 is no effect, 10 is complete control
[5] = Preemergence, Rate 250 g/ha, scale 0 to 10, 0 is no effect, 10 is complete control
[6] = Preemergence, Rate 500 g/ha, scale 0 to 10, 0 is no effect, 10 is complete control
[7] = Rate 62 g/ha, Postemergence, scale 0 to 10, 0 no effect, 10 complete control
[8] = Postemergence, Rate 500 g/ha, scale of 0 to 10 where 0 is no effect and 10 is complete control
[9] = Rate 62 g/ha, flood test species, Pre-emergence, visual evaluation after twelve to sixteen days
[10] = Rate 125 g/ha, under heading Pre-emergence, flood test species, visual evaluation after twelve to sixteen days
[11] = Rate 250 g/ha, Pre-emergence (flood test species), scale 0 to 10, 0 is no effect, 10 is complete control
[12] = Rate 500 g/ha, Pre-emergence, flood test species, scale 0 to 10 (0 no effect, 10 complete control)

SMILES: CC(C)N(C(=O)n1oc(=O)n(Cc2cnc(Cl)s2)c1=O)c1ccc(F)cc1 [Compound 482]
- Wild oats plant response rating (wild oat; [1]): 0
- Wild oats plant response rating (wild oat; [2]): 0
- Plant response rating, Wild oats (wild oat; [3]): 0
- Wild oats plant response rating (wild oat; [4]): 0
- Wild oats plant response rating (wild oat; [5]): 0
- Wild oats plant response rating (wild oat; [6]): 3
- Wild oats plant response rating (wild oat; [7]): 0
- Giant foxtail plant response rating (giant foxtail; [1]): 0
- Giant foxtail plant response rating (giant foxtail; [2]): 0
- Giant foxtail plant response rating (giant foxtail; [8]): 2
- Plant response rating, Giant foxtail (giant foxtail; [3]): 1
- Giant foxtail plant response rating (giant foxtail; [4]): 6
- Giant foxtail plant response rating (giant foxtail; [5]): 8
- Giant foxtail plant response rating (giant foxtail; [6]): 9
- Giant foxtail plant response rating (giant foxtail; [7]): 0
- Bedstraw plant response rating (bedstraw; Rate 125 g/ha, scale 0 to 10, 0 is no effect, 10 is complete control): 0
- Bedstraw plant response rating (bedstraw; Rate 250 g/ha, scale 0 to 10): 0
- Plant response rating, Bedstraw (bedstraw; [3]): 0
- Bedstraw plant response rating (bedstraw; Rate 62 g/ha, scale 0 to 10, 0 no effect, 10 complete control): 0
- Plant response rating, Barnyardgrass (0 to 10 scale, 0 is no effect, 10 is complete control) (bamyardgrass; [9]): 0
- Barnyardgrass plant response rating (0 to 10 scale, 0 is no effect, 10 is complete control) (bamyardgrass; [10]): 0
- Barnyardgrass plant response rating (bamyardgrass; [11]): 0
- Barnyardgrass plant response rating (bamyardgrass; [12]): 0
- Crabgrass plant response rating (crabgrass; [1]): 0
- Crabgrass plant response rating (crabgrass; [2]): 1
- Crabgrass plant response rating (crabgrass; [8]): 3
- Plant response rating, Crabgrass (crabgrass; [3]): 3
- Crabgrass plant response rating (crabgrass; [4]): 8
- Crabgrass plant response rating (crabgrass; [5]): 8
- Crabgrass plant response rating (crabgrass; [6]): 8
- Crabgrass plant response rating (crabgrass; [7]): 0
- Cocklebur plant response rating (cocklebur; [1]): 0
- Cocklebur plant response rating (cocklebur; [2]): 0
- Cocklebur plant response rating (cocklebur; [8]): 0
- Plant response rating, Cocklebur (cocklebur; [3]): 0
- Cocklebur plant response rating (cocklebur; [4]): 0
- Cocklebur plant response rating (cocklebur; [5]): 0
- Cocklebur plant response rating (cocklebur; [6]): 0
- Cocklebur plant response rating (cocklebur; [7]): 0
- Corn plant response rating (corn; [1]): 0
- Corn plant response rating (corn; [2]): 0
- Corn plant response rating (corn; [8]): 0
- Plant response rating, Corn (corn; [3]): 0
- Corn plant response rating (corn; [4]): 0
- Corn plant response rating (corn; [5]): 0
- Corn plant response rating (corn; [6]): 0
- Corn plant response rating (corn; [7]): 0
- Morningglory plant response rating (morningglory; [1]): 7
- Morningglory plant response rating (morningglory; [2]): 8
- Plant response rating, Morningglory (morningglory; [3]): 0
- Morningglory plant response rating (morningglory; [4]): 0
- Morningglory plant response rating (morningglory; [5]): 0
- Morningglory plant response rating (morningglory; [6]): 0
- Morningglory plant response rating (morningglory; [7]): 5
- Plant response rating, Rice (0 to 10 scale, 0 is no effect, 10 is complete control) (rice; [9]): 0
- Rice plant response rating (0 to 10 scale, 0 is no effect, 10 is complete control) (rice; [10]): 0
- Rice plant response rating (rice; [11]): 0
- Rice plant response rating (rice; [12]): 0
- Blackgrass plant response rating (blackgrass; [1]): 0
- Blackgrass plant response rating (blackgrass; [2]): 0
- Blackgrass plant response rating (blackgrass; [8]): 0
- Plant response rating, Blackgrass (blackgrass; [3]): 0
- Blackgrass plant response rating (blackgrass; [4]): 0
- Blackgrass plant response rating (blackgrass; [5]): 0
- Blackgrass plant response rating (blackgrass; [6]): 4
- Blackgrass plant response rating (blackgrass; [7]): 0
- Nutsedge plant response rating (purple nutsedge; [1]): 0
- Nutsedge plant response rating (purple nutsedge; [2]): 0
- Plant response rating, Nutsedge (purple nutsedge; [3]): 0
- Nutsedge plant response rating (purple nutsedge; [4]): 0
- Nutsedge plant response rating (purple nutsedge; [5]): 0
- Nutsedge plant response rating (purple nutsedge; [6]): 0
- Nutsedge plant response rating (purple nutsedge; [7]): 0
- Plant response rating, Ducksalad (0 to 10 scale, 0 is no effect, 10 is complete control) (duck salad; [9]): 0
- Ducksalad plant response rating (0 to 10 scale, 0 is no effect, 10 is complete control) (duck salad; [10]): 0
- Ducksalad plant response rating (duck salad; [11]): 0
- Ducksalad plant response rating (duck salad; [12]): 0
- Wheat plant response rating (wheat; [1]): 0
- Wheat plant response rating (wheat; [2]): 0
- Plant response rating, Wheat (wheat; [3]): 0
- Wheat plant response rating (wheat; [4]): 0
- Wheat plant response rating (wheat; [5]): 0
- Wheat plant response rating (wheat; [6]): 0
- Wheat plant response rating (wheat; [7]): 0
- Velvetleaf plant response rating (velvetleaf; [1]): 0
- Velvetleaf plant response rating (velvetleaf; [2]): 0
- Plant response rating, Velvetleaf (velvetleaf; [3]): 0
- Velvetleaf plant response rating (velvetleaf; [4]): 0
- Velvetleaf plant response rating (velvetleaf; [5]): 0
- Velvetleaf plant response rating (velvetleaf; [6]): 2
- Velvetleaf plant response rating (velvetleaf; [7]): 0
- Plant response rating, S. Flatsedge (0 to 10 scale, 0 is no effect, 10 is complete control) (smallflower flatsedge; [9]): 0
- S. Flatsedge plant response rating (0 to 10 scale, 0 is no effect, 10 is complete control) (smallflower flatsedge; [10]): 0
- S. Flatsedge plant response rating (smallflower flatsedge; [11]): 0
- S. Flatsedge plant response rating (smallflower flatsedge; [12]): 0
- B. signalgrass plant response rating (surinam grass; [1]): 0
- B. signalgrass plant response rating (surinam grass; Postemergence, Rate 250 g/ha, scale 0 to 10, 0 no effect, 10 complete control): 0
- B. signalgrass plant response rating (surinam grass; [8]): 0
- Plant response rating, B. signalgrass (surinam grass; [3]): 0
- B. signalgrass plant response rating (surinam grass; [4]): 0
- B. signalgrass plant response rating (surinam grass; [5]): 0
- B. signalgrass plant response rating (surinam grass; [6]): 0
- B. signalgrass plant response rating (surinam grass; [7]): 0
